Patent publication US20260250320A1, “LIPIDATED PEPTIDE INHIBITORS OF INTERLEUKIN-23 RECEPTOR” (Janssen Pharmaceutica NV, priority 2023, published 2026)
pIC50: −log10 of the molar value. *1 amine or outer side, *2 acyl side, *3 side chain or, on linkers, in order; H or OH if unused. Where a SMILES comes first, the peptide text is derived from it. Bridges are numbered along the chain shown (N, C = ends). Side-chain parts run from the residue outwards. [ ]: non-standard residue; d: D form. The star is where a group is joined. X27 = C[N+](C)(CCNC(=O)COCCOCCNC(=O)COCCOCCNC(=O)CC[C@H](NC(=O)CCCCCCCCCCCCCCCCCCC(=O)O)C(=O)O)CC(=O)*; Me3N+(CH2)2O(CH2)2O(CH2)2CO = C[N+](C)(C)CCOCCOCCC(=O)*; CH2CH2OCH2CH2OCH2CH2NMe3+ = C[N+](C)(C)CCOCCOCC*; Trp(7-Me) = Cc1cccc2c(C[C@H](N)C(=O)O)c[nH]c12; C18 diacid = O=C(O)CCCCCCCCCCCCCCCCC(=O)*; γGlu = O=C(O)[C@H](CCC(=O)[*:2])N[*:1]; 2Nal = N[C@@H](Cc1ccc2ccccc2c1)C(=O)O; AEF = NCCOc1ccc(C[C@H](N)C(=O)O)cc1; X26 = C[N+](C)(CCN[*:1])CC(=O)[*:2]; X2 = C[N+](C)(C)C[C@@H](CC(=O)O)N*; 3Pal = N[C@@H](Cc1cccnc1)C(=O)O; Lys(Me) = CNCCCC[C@H](N)C(=O)O; Pen = CC(C)(S)[C@H](N)C(=O)O; Suc = O=C(CCC(=O)[*:2])[*:1]; Thp = NC1(C(=O)O)CCOCC1; AEEA = NCCOCCOCC(=O)O; Sar = CNCC(=O)O

Tests used:
[1] = system: IL-23-stimulated phosphorylated STAT3 in peripheral blood mononuclear cells (PBMCs); assay: PBMC pSTAT3 Assay; format: cell-based; details: PBMCs from healthy donors; 30 min preincubation with peptide; IL-23 5 ng/mL for 30 min; phospho-STAT3 by MSD
Method in brief: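 Phospho-STAT3 quantified by Meso Scale assay in lysates of PBMCs exposed to IL-23 (5 ng/mL, 30 min, 37 °C) after 30 min peptide pretreatment. Cells were cryopreserved donor PBMCs activated 4 days with anti-CD3 plus IL-1β (100 ng/mL) and starved ~4 h; IC50 reported.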

[2] = molecular target: T1, IL-23R (Homo sapiens, UniProt Q5VWK5); assay: IL23R Reporter Assay; format: cell-based; details: HEK293 cells containing IL-23R, IL-12Rβ1 and STAT-inducible firefly luciferase reporter; 10 ng/mL IL-23 (EC90); 5 h
T1 construct: HEK293 cells containing IL-23R, IL-12Rβ1 and a firefly luciferase reporter gene driven by a STAT-inducible promoter (Promega); host or cells: HEK293
T1 sequence (Q5VWK5 24-629): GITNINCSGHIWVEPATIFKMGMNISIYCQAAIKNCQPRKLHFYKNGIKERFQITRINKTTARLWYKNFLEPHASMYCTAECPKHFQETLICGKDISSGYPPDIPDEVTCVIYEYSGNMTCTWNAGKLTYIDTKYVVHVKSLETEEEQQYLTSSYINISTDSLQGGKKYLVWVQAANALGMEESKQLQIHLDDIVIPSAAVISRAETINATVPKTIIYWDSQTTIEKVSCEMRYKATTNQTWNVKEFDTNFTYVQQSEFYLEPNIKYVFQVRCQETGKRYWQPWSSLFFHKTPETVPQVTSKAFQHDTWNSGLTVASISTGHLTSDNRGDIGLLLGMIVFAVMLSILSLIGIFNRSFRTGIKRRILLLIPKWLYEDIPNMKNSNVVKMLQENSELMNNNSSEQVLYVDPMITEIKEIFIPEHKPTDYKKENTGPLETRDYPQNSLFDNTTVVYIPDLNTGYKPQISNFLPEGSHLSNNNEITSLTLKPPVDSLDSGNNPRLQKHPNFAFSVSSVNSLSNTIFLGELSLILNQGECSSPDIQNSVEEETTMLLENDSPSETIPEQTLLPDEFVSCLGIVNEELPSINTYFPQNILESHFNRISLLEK
Method in brief: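 IC50 values were fitted with a 4-parameter Hill equation to luciferase signal, scaled between IL-23-only wells (0% inhibition) and 30 μM reference inhibitor (100%). The readout was a STAT-inducible reporter in IL-23R/IL-12Rβ1 HEK293 cells, stimulated with added 10 ng/mL IL-23 (EC90) for 5 h at 37° C and developed with BioGlo.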

Row | pIC50 [2] | Structure (SMILES) | pIC50 [1]
1 | > 7.30 | CC(=O)N(C)CCCC[C@@H]1NC(=O)[C@H](Cc2c[nH]c3c(C)cccc23)NC(=O)[C@H]([C@@H](C)O)NC(=O)[C@H](CC(=O)N(C)C)NC(=O)[C@@H](NC(=O)CCOCCOCC[N+](C)(C)C)C(C)(C)SSC(C)(C)[C@@H](C(=O)N[C@@H](Cc2ccc(OCCNC(=O)C[N+](C)(C)CCNC(=O)COCCOCCNC(=O)COCCOCCNC(=O)CC[C@H](NC(=O)CCCCCCCCCCCCCCCCCCC(=O)O)C(=O)O)cc2)C(=O)N[C@@H](Cc2ccc3ccccc3c2)C(=O)NC2(C(=O)N[C@@H](CCCCN(C)C(C)=O)C(=O)N[C@@H](CC(N)=O)C(=O)N[C@@H](Cc3cccnc3)C(=O)N(C)CC(=O)N(C)C)CCOCC2)NC1=O [compound 151, cPEG3aCO-Pen(3)-N(N(Me)2)-T-7MeW-K(NMeAc)-Pen(3)-AEF(SP6PEG2PEG2gEC20OH)-2Nal-THP-K(NMeAc)-N-3Pya-Sar-CON(Me)2] ({Me3N+(CH2)2O(CH2)2O(CH2)2CO}-[Pen]D(NMe2)T[Trp(7-Me)][Lys(Me)](Ac)[Pen][AEF](X27)[2Nal][Thp][Lys(Me)](Ac)N[3Pal][Sar]-NMe2; disulfide 1-6) | > 9.30
2 | > 7.30 | CC(=O)N(C)CCCC[C@@H]1NC(=O)[C@H](Cc2c[nH]c3c(C)cccc23)NC(=O)[C@H]([C@@H](C)O)NC(=O)[C@H](CC(=O)N(C)C)NC(=O)[C@@H](NC(=O)COCCOCCNC(=O)C[N+](C)(C)CCNC(=O)COCCOCCNC(=O)CC[C@H](NC(=O)CCCCCCCCCCCCCCCCC(=O)O)C(=O)O)C(C)(C)SSC(C)(C)[C@@H](C(=O)N[C@@H](Cc2ccc(OCCOCCOCC[N+](C)(C)C)cc2)C(=O)N[C@@H](Cc2ccc3ccccc3c2)C(=O)NC2(C(=O)N[C@@H](CCCCN(C)C(C)=O)C(=O)N[C@@H](CC(N)=O)C(=O)N[C@@H](Cc3cccnc3)C(=O)N(C)CC(=O)N(C)C)CCOCC2)NC1=O [compound 89, HOC18gEPEG2SP6PEG2CO-Pen(3)-N(N(Me)2)-T-7MeW-K(NMeAc)-Pen(3)-APEG3F-2Nal-THP-K(NMeAc)-N-3Pya-Sar-CON(Me)2] ({C18 diacid-γGlu-AEEA}-[X26][AEEA][Pen]D(NMe2)T[Trp(7-Me)][Lys(Me)](Ac)[Pen]Y(CH2CH2OCH2CH2OCH2CH2NMe3+)[2Nal][Thp][Lys(Me)](Ac)N[3Pal][Sar]-NMe2; disulfide 3-8) | > 9.30
3 | > 7.30 | CC(=O)NCCCC[C@@H]1NC(=O)[C@H](Cc2c[nH]c3c(C)cccc23)NC(=O)[C@H]([C@@H](C)O)NC(=O)[C@H](CC(N)=O)NC(=O)[C@@H](NC(=O)[C@@H](CCCNC(=N)N)NC(C)=O)C(C)(C)SSC(C)(C)[C@@H](C(=O)N[C@@H](Cc2ccc(OCCNC(=O)COCCOCCNC(=O)COCCOCCNC(=O)CC[C@H](NC(=O)CCCCCCCCCCCCCCCCC(=O)O)C(=O)O)cc2)C(=O)N[C@@H](Cc2ccc3ccccc3c2)C(=O)NC2(C(=O)N[C@@H](CCCCNC(=O)CCC(=O)N[C@H](CC(=O)O)C[N+](C)(C)C)C(=O)N[C@@H](CC(N)=O)C(=O)N[C@@H](Cc3cccnc3)C(=O)N(C)CC(N)=O)CCOCC2)NC1=O [compound 9, MeCO-r-Pen(3)-N-T-7MeW-K(Ac)-Pen(3)-AEF(PEG2PEG2gEC18OH)-2Nal-THP-K(d)-N-3Pya-Sar-CONH2] (Ac-[dR][Pen]NT[Trp(7-Me)]K(Ac)[Pen][AEF]([AEEA-AEEA-γGlu-C18 diacid])[2Nal][Thp]K([Suc-X2])N[3Pal][Sar]-NH2; disulfide 2-7) | > 9.30
